The record followed here is US20180071298A1, “METHODS FOR TREATING ALZHEIMER'S DISEASE” (Reviva Pharmaceuticals, Inc., priority 2015, published 2018).

Each structure is given as a SMILES string.

The target in experiment [1] is Human Cortex or Human recombinant 5-HT2A (Homo sapiens, UniProt P28223). As to the kind of experiment: Serotonin 5HT2A radioligand binding assay. The settings on record: [3H]-Ketanserin.
For experiment [2], the target named is T1, Human recombinant 5-HT1A (Homo sapiens, UniProt P08908).
T1 construct: expressed in transfected cells
T1 sequence (P08908 1-422): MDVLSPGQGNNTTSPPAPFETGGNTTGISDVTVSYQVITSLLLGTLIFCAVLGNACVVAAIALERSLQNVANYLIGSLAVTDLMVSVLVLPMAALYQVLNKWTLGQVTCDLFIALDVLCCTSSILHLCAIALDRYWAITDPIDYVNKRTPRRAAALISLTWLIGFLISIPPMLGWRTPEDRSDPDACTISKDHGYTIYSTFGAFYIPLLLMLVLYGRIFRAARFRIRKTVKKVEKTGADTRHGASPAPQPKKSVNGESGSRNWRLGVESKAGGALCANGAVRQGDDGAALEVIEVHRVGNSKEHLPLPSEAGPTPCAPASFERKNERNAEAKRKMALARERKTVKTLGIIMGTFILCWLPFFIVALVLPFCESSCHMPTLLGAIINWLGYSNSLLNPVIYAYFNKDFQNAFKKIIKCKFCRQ
The experiment in a line: Serotonin 5HT1A radioligand binding assay. The settings on record: [3H]-8-OH-DPAT. From the text: Serotonin, 5HT1A Radioligand Binding Assay
Receptor Source: Human recombinant 5-HT1A expressed mammalian cells
Radioligand: [^3H]-8-OH-DPAT (221 Ci/mmol)
Control Compound: 8-OH-DPAT

Chain of Human Cortex or Human recombinant 5-HT2A (P28223 whole entry): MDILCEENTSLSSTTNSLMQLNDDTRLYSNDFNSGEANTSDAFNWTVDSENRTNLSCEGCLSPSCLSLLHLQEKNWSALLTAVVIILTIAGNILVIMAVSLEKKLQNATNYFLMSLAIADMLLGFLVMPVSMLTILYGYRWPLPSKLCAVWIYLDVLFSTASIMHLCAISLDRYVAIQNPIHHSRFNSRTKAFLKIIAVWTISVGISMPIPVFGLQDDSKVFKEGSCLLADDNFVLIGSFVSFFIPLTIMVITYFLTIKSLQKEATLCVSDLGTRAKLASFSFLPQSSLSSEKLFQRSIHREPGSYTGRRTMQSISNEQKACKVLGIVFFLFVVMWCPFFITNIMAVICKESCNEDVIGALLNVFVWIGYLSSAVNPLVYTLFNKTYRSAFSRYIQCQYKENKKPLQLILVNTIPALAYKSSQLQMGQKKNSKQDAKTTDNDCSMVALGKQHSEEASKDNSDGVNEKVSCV

The term Ki denotes the equilibrium dissociation constant of an inhibitor or competing ligand from its target. With `O=C1COc2ccc(OCCCCN3CCN(c4cccc(Cl)c4Cl)CC3)cc2N1` [Compound A, 6-(4-(4-(2,3-dichlorophenyl)piperazin-1-yl)butoxy)-2H-benzo[b][1,4]oxazin-3(-4H)-one], the “Ki, Serotonin 5-HT2A” value in experiment [1] was determined as 111 nM. The Ki in experiment [2] came out at 0.65 nM.
